Data as given in patent US20250041278A1, “TLR8 AGONIST FOR MODULATING IMMUNE RESPONSE” (The Children's Medical Center Corporation, priority 2021, published 2025).

Tests used:
[1] = system: murine bone marrow-derived dendritic cells; test: mTNF and mIL-6 ELISA in murine bone-marrow-derived dendritic cells; format: cell-based; settings: murine BMDCs, 18 hours
Method: FIGS. 4A-4D. PVP-179 activates human macrophages and dendritic cells. FIGS. 4A-4B: Murine mononuclear cells were isolated from bone marrow and induced differentiation into dendritic cells (with GM-CSF and IL-4). After 5 days of culturing, these bone-marrow-derived dendritic cells (BMDCs) were stimulated with PVP-179 or MPLA for 18 hours at indicated concentrations. The supernatants were analyzed via ELISA where each dot in the graph represents the mean production of mTNF (FIG. 4A) and mIL-6 (FIG. 4B). N=6 for PVP-179, N=3 for MPLA. Two-way Anova was performed to determine statistical significance. The comparisons shown are compared to control group (0 M PVP-179). FIGS. 4C-4D: PBMCs were isolated from blood of adult human donors. CD14+ monocytes were specifically isolated from the PBMCs and were then cultured in 10% autologous plasma and induced to differentiate into macrophages with M-CSF (FIG. 4C), or dendritic cells with GM-CSF and IL-4 (FIG. 4D). After 5 days, cells were harvested from each differentiated cell type (macrophages: Mφ; dendritic cells: MoDCs) and a 96-well plate was setup with 100,000 cells/well. Cells were then stimulated with indicated concentrations of PVP-179 or R848 (33 μM) or LPS (100 ng/mL). After 20-24 hours of incubation, supernatants were harvested and applied to TNF ELISA. N=2 donors.

[2] = biological target: T1, hTLR7 (Homo sapiens, UniProt Q9NYK1); test: HEK hTLR7 NF-κB SEAP reporter assay; format: cell-based; settings: even at higher concentrations
T1 construct: expressed in transfected cells; host or cells: HEK reporter cells
T1 sequence (Q9NYK1 27-1049): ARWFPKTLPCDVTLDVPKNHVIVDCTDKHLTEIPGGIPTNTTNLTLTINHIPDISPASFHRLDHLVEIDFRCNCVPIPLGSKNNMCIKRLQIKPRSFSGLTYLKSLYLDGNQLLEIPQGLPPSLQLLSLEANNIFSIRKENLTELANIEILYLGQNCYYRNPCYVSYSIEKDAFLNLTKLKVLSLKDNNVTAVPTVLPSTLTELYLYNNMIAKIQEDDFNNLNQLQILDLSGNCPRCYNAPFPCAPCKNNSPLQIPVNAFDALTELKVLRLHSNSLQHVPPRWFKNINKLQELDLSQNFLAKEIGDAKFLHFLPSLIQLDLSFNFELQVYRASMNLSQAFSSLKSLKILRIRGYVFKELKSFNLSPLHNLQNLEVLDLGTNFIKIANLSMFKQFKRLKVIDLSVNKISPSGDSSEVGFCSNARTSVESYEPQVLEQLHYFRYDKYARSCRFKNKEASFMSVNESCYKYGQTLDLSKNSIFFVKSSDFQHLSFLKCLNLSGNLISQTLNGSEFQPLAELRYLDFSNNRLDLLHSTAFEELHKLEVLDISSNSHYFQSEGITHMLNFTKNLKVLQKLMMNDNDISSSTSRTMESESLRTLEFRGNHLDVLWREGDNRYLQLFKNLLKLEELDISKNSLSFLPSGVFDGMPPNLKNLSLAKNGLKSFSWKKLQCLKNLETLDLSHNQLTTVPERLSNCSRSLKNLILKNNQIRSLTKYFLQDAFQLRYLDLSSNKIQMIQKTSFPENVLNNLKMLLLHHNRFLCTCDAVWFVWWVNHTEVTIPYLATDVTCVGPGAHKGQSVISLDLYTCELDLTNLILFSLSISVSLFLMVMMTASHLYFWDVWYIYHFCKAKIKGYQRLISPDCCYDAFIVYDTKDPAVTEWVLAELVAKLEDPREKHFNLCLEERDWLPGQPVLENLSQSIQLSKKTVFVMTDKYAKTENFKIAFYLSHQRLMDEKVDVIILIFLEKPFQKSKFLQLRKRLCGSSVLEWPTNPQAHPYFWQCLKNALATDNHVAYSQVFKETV
Method: FIGS. 3A-3E. PVP-179 is a TLR8 agonist. FIG. 3A: PVP-179 was sent to InvivoGen for PRR ligand screening service. Various cells lines were utilized to screen for PVP-179-induced ([…]) activation of TLRs, NOD1/2, RIG-I/MDA-5, Dectin-1 or Mincle receptor. The heat-map depicts percentage activity compared to the positive control for each receptor. FIG. 3B: PVP-179 induced activity (% activity compared to the positive control: CL075 at 1 μg/mL) in HEK-293 cells specifically expressing hTLR8. In brief, these cells have an NF-κB/AP-1-inducible secreted embryonic alkaline phosphatase (SEAP) reporter gene which allows monitoring of signaling via TLR8. After incubation for 16-24 hours, supernatant harvested from the cells is mixed with media containing SEAP-substrate and the optical density (OD) is measured at 650 nm using a spectrophotometer. FIG. 3C: As in FIG. 3B, HEK cells specifically expressing hTLR2, hTLR7, or hTLR8, in addition to the HEK-Null cell line carrying only the reporter gene, were stimulated with the indicated concentrations of PVP-179. […] PVP-179 activity is expressed as a percentage of NF-κB induced in the cells stimulated with TNF (positive control for each cell line). […] The supernatants were harvested after 20-24 hours and SEAP production (to assess NF-κB activity) was measured using QUANTIBlue assay. […]

## CCCCn1c(/N=C/c2nc3ccccc3n2C)nc2ccccc21 [PVP-179]
[1]
  cytokine inducing activity (mTNF, mIL-6): minimal cytokine inducing activity
[2]
  NF-κB activity in HEK cells expressing hTLR7: no activity was detected
